According to patent US20240261417A1, “SOS1 DEGRADING AGENT AND PREPARATION METHOD THEREFOR AND APPLICATION THEREOF” (SHANGHAI LEADINGTAC PHARMACEUTICAL CO. LTD., priority 2021, published 2024):

What was measured:
KRAS-G12C/SOS1 = molecular target: T1, KRAS-G12C/SOS1 (Homo sapiens, UniProt Q07889); experiment: KRAS-G12C/SOS1 binding assay (HTRF); conditions: inhibition of KRAS-G12C/SOS1 binding
T1 construct: purchased Cisbio 63ADKOOOCB16PEG
T1 sequence (Q07889 1-1333): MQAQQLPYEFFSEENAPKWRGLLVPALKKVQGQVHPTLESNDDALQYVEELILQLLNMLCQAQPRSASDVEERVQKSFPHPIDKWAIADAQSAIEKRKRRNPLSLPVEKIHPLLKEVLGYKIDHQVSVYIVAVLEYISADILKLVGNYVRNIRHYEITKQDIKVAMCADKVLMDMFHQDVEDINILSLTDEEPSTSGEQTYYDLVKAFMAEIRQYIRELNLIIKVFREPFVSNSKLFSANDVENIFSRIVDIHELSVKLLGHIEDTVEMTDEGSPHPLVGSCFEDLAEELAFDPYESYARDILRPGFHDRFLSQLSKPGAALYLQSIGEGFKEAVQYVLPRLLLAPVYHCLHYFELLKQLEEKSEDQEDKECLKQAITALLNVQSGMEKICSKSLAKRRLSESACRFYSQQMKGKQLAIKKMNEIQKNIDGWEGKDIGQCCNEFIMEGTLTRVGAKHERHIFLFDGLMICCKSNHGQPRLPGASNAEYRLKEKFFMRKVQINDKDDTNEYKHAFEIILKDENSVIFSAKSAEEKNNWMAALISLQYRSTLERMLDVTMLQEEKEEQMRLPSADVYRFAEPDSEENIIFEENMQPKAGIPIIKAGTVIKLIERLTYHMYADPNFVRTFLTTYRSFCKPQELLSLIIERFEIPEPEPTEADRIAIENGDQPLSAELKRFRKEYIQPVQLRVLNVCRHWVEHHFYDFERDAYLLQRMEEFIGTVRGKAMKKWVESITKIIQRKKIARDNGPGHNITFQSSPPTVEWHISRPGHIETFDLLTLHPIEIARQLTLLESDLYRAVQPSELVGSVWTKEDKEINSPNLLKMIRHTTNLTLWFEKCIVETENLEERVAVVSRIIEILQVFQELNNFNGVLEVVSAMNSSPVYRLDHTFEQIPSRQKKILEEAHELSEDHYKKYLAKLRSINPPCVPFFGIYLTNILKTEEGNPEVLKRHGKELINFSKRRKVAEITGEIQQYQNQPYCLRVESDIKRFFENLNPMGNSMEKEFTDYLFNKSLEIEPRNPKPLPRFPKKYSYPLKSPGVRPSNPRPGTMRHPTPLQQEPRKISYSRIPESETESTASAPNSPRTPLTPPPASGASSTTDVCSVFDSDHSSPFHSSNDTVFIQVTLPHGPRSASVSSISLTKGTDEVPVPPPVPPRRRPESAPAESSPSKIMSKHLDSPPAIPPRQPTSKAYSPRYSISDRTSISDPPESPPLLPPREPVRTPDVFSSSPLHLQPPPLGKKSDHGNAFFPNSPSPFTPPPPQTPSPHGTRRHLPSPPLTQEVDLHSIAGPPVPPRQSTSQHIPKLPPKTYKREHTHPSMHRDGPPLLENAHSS
Protocol: The following method was used to determine the extent of inhibition of KRAS-G12C/SOS1 binding by the preferred compounds of the present invention under in vitro conditions. In this method, the competitive inhibition of KRAS-G12C/SOS1 binding by the preferred compounds was assayed by the homogeneous time-resolved fluorescence (HTRF) technology using the KRAS-G12C/SOS1 binding assay kit (Cisbio, 63ADKOOOCB16PEG).
The experimental procedures were as follows (refer to the kit instructions for details): the compounds of the present invention were each firstly dissolved in DMSO at a concentration of 20 mM, and then diluted in an equal gradient with a buffer in the kit, so that the final concentrations of the test compounds in the reaction system were in a range of 10000 nM-0.04 nM, and the final concentration of DMSO was 0.5%. 2 μL of the compounds were each incubated with 4 μL of 1×Tag1-SOS1, 4 μL of 1×Tag2-KRAS-G12C (containing 10 μM guanosine triphosphate, GTP) at 25° C. for 15 min. Then 5 μL of 1× Anti-Tag1-Tb3+ and 5 μL of 1× Anti-Tag2-XL665 were added to the reaction system, and the mixture was incubated on ice for 3 h. After the incubation, the fluorescence intensity of each well was measured at the excitation wavelength of 337 nm, the fluorescence intensity of each well was read at the emission wavelengths of 620 nm and 665 nm on a microplate reader EnVision (PerkinElmer, 2105) in an HTRF mode, and the Ratio value was calculated by the formula Ratio=(665 nm/620 nm)×[…]. The inhibition rates of the compounds at each concentration were calculated by comparing the fluorescence intensity ratio with that of the control group, and then nonlinear curve fitting was performed by GraphPad Prism 8 in the logarithmic concentration-inhibition rate to obtain the IC50 values of the compounds, as shown in Table 1.

SOS1 protein = molecular target: T2, SOS1 protein (Homo sapiens, UniProt Q07889); experiment: SOS1 degradation assay (Western blot), NCI-H358 cells; assay type: cell-based; set-up: The degradation of SOS1 by the compounds was investigated on KRAS G12C mutant human non-small cell lung cancer cells NCI-H358; host or cells: NCI-H358 (human cancer cell lines); conditions: SOS1 degradation, NCI-H358 cells, 24 h, Western blot; for DC50: read-out: NCI-H358 (G12C) DC50; for Dmax: read-out: NCI-H358 (G12C) Dmax
T2 sequence (Q07889 1-1333): T1 sequence (Q07889 1-1333)
Method in brief: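 SOS1 degradation was assessed by densitometry of Western blots, relative to untreated controls, after 24 h compound exposure (0.03–3000 nM final, 37 °C, 5% CO2) of cells seeded at 5×10^5/well. Log concentration–response fitting gave DC50 and Dmax.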

| IC50 (KRAS-G12C/SOS1) [nM] | DC50 (SOS1 protein) [nM] | Dmax (SOS1 protein) [%] | SMILES |
| --- | --- | --- | --- |
| ≤ 15 | < 50 | 50 to 80 | COc1cc2nc(C)nc(N[C@H](C)c3cc(N)cc(C(F)(F)F)c3)c2cc1C1=CCC(C(=O)N2CCN(CCOCC3CCN(C(=O)c4ccc(Cl)c(N5CCC(=O)NC5=O)c4)CC3)CC2)CC1 (stereo partly drawn) [Example 53, 1-(5-(4-((2-(4-(4-(4-(((R)-1-(3-amino-5-(trifluoromethyl)phenyl)ethyl)amino)-7-methoxy-2-methylquinazolin-6-yl)cyclohex-3-ene-1-carbonyl)piperazin-1-yl)ethoxy)methyl)piperidine-1-carbonyl)-2-chlorophenyl)dihydropyrimidine-2,4(1H,3H)-dione] |
| ≤ 15 | < 50 | 80 to 100 | COc1cc2nc(C)nc(N[C@H](C)c3cc(-c4c(Cl)cccc4CN(C)C)cs3)c2cc1[C@H]1CC[C@H](C(=O)N2CCN(CCCCC3CCN(C(=O)c4ccc(Cl)c(N5CCC(=O)NC5=O)c4)CC3)CC2)CC1 [Example 71, 1-(2-chloro-5-(4-(4-(4-((1R,4R)-4-(4-(((R)-1-(4-(2-chloro-6-((dimethylamino)methyl)phenyl)thien-2-yl)ethyl)amino)-7-methoxy-2-methylquinazolin-6-yl)cyclohexane-1-carbonyl)piperazin-1-yl)butyl)piperidine-1-carbonyl)phenyl)dihydropyrimidine-2,4(1H,3H)-dione] |
| ≤ 15 | < 50 | 80 to 100 | COc1cc2nc(C)nc(N[C@H](C)c3cc(-c4c(Cl)cccc4CN(C)C)cs3)c2cc1[C@H]1CC[C@H](C(=O)N2CCC(CCCOC3CCN(C(=O)c4ccc(Cl)c(N5CCC(=O)NC5=O)c4)CC3)CC2)CC1 [Example 54, 1-(2-chloro-5-(4-(3-(1-((1R,4R)-4-(4-(((R)-1-(4-(2-chloro-6-((dimethylamino)methyl)phenyl)thien-2-yl)ethyl)amino)-7-methoxy-2-methylquinazolin-6-yl)cyclohexane-1-carbonyl)piperidin-4-yl)propoxy)piperidine-1-carbonyl)phenyl)dihydropyrimidine-2,4(1H,3H)-dione] |
| ≤ 15 | < 50 | 50 to 80 | COCCOc1cc2nc(C)nc(N[C@H](C)c3cc(N)cc(C(F)(F)F)c3)c2cc1[C@H]1CC[C@H](C(=O)N2CCN(CC3CCC4(CC3)CCN(C(=O)c3ccc(Cl)c(N5CCC(=O)NC5=O)c3)CC4)CC2)CC1 [Example 43, 1-(5-(9-((4-((1R,4R)-4-(4-(((R)-1-(3-amino-5-(trifluoromethyl)phenyl)ethyl)amino)-7-(2-methoxyethoxy)-2-methylquinazolin-6-yl)cyclohexane-1-carbonyl)piperazin-1-yl)methyl)-3-azaspiro[5.5]undecane-3-carbonyl)-2-chlorophenyl)dihydropyrimidine-2,4(1H,3H)-dione] |
| ≤ 15 | < 50 | 80 to 100 | COc1cc2nc(C)nc(N[C@H](C)c3cc(N)cc(C(F)(F)F)c3)c2cc1C1=CCC(C(=O)N2CCN(CC3CCC4(CC3)CCN(C(=O)c3ccc(Cl)c(N5CCC(=O)NC5=O)c3)CC4)CC2)CC1 (stereo partly drawn) [Example 51, 1-(5-(9-((4-(4-(4-(((R)-1-(3-amino-5-(trifluoromethyl)phenyl)ethyl)amino)-7-methoxy-2-methylquinazolin-6-yl)cyclohex-3-ene-1-carbonyl)piperazin-1-yl)methyl)-3-azaspiro[5.5]undecane-3-carbonyl)-2-chlorophenyl)dihydropyrimidine-2,4(1H,3H)-dione] |
| ≤ 15 | < 50 | 80 to 100 | COc1cc2nc(C)nc(N[C@H](C)c3cc(-c4c(Cl)cccc4CN(C)C)cs3)c2cc1[C@H]1CC[C@H](C(=O)N2CCC(CCCCN3CCN(C(=O)c4ccc(Cl)c(N5CCC(=O)NC5=O)c4)CC3)CC2)CC1 [Example 56, 1-(2-chloro-5-(4-(4-(1-((1R,4R)-4-(4-(((R)-1-(4-(2-chloro-6-((dimethylamino)methyl)phenyl)thien-2-yl)ethyl)amino)-7-methoxy-2-methylquinazolin-6-yl)cyclohexane-1-carbonyl)piperidin-4-yl)butyl)piperazine-1-carbonyl)phenyl)dihydropyrimidine-2,4(1H,3H)-dione] |
| ≤ 15 | < 50 | 50 to 80 | COc1cc2nc(C)nc(N[C@H](C)c3cc(N)cc(C(F)(F)F)c3)c2cc1C1=CCC(C(=O)N2CCC(CCOCC3CCN(C(=O)c4ccc(Cl)c(N5CCC(=O)NC5=O)c4)CC3)CC2)CC1 (stereo partly drawn) [Example 64, 1-(5-(4-((2-(1-(4-(4-(((R)-1-(3-amino-5-(trifluoromethyl)phenyl)ethyl)amino)-7-methoxy-2-methylquinazolin-6-yl)cyclohex-3-ene-1-carbonyl)piperidin-4-yl)ethoxy)methyl)piperidine-1-carbonyl)-2-chlorophenyl)dihydropyrimidine-2,4(1H,3H)-dione] |
| ≤ 15 | < 50 | 80 to 100 | COc1cc2nc(C)nc(N[C@H](C)c3cc(-c4c(Cl)cccc4CN(C)C)cs3)c2cc1[C@H]1CC[C@H](C(=O)N2CCN(CCOCC3CCN(C(=O)c4ccc(Cl)c(N5CCC(=O)NC5=O)c4)CC3)CC2)CC1 [Example 67, 1-(2-chloro-5-(4-((2-(4-((1R,4R)-4-(4-(((R)-1-(4-(2-chloro-6-((dimethylamino)methyl)phenyl)thien-2-yl)ethyl)amino)-7-methoxy-2-methylquinazolin-6-yl)cyclohexane-1-carbonyl)piperazin-1-yl)ethoxy)methyl)piperidine-1-carbonyl)phenyl)dihydropyrimidine-2,4(1H,3H)-dione] |
| ≤ 15 | < 50 |  | COc1cc2nc(C)nc(N[C@H](C)c3cc(N)cc(C(F)(F)F)c3)c2cc1[C@H]1CC[C@H](C(=O)N2CCC(CCOCC3CCN(C(=O)c4ccc(F)c(N5CCC(=O)NC5=O)c4)CC3)CC2)CC1 [Example 44, 1-(5-(4-((2-(1-((1R,4R)-4-(4-(((R)-1-(3-amino-5-(trifluoromethyl)phenyl)ethyl)amino)-7-methoxy-2-methylquinazolin-6-yl)cyclohexane-1-carbonyl)piperidin-4-yl)ethoxy)methyl)piperidine-1-carbonyl)-2-fluorophenyl)dihydropyrimidine-2,4(1H,3H)-dione] |
